Patent publication US10695341B2, “Compositions and methods for treating endometriosis” (UNIVERSITY OF SOUTH FLORIDA, priority 2014, dated 2020)

Experiments:
LC3B-II [1] = assay: Western blot for LC3B, T-HESC cells, HCQ; assay type: cell-based, human; details: 25 μM HCQ, 18 hours
endometriotic lesions = assay: Effect of hydroxychloroquine on lesion formation in mouse endometriosis model (Example 3); assay type: in vivo, C57BL/6 mice; details: 60 mg/kg intraperitoneal, lesions evaluated 14 days after start; P between groups 0.0019
Protocol: To determine the effect of hydroxychloroquine on endometriosis in vivo, mice (6-8 week old C57BL/6 background mice) were fed on a mouse diet and given ad libitum access to water and kept on a light/dark cycle of 12/12 h under controlled conditions. Prior to any invasive procedure, the mice were anesthetized using Isofluorane (initial vaporizer flow rate of 3-5%) implemented once prior to an invasive procedure. The mice were also given Ketoprofen (10 mg/kg) subcutaneously as a post-operative analgesic agent for the first 24 hours and then as needed. All surgical procedures were performed under sterile conditions. Mice were ordered at 3-5 weeks of age to receive them and allow them to acclimate to the housing conditions prior to the start of the investigation when the mice are about 6 to about 8 weeks of age. […] The fragments were suspended in about 0.6 ml of phosphate buffered saline and were injected with an 18-gauge needle through the abdominal wall below the umbilicus into the peritoneal cavity of recipient mice with a ratio of one donor to two recipients (equivalent quantities). […] Lesions were identified, removed, and analyzed. […]

LC3B-II [2] = assay: Western blot of LC3B in other organs of treated mice; assay type: in vivo, mouse; details: 5 HCQ-treated vs 5 PBS-treated mice
Protocol: Tissues used for protein analyses included uterine horns, ectopic lesions, ovaries, thymus, kidneys, heart, pancreas, spleen, and liver. Samples were flash frozen in liquid nitrogen and stored at -80° C. until use. Tissues were homogenized in ice-cold lysis buffer containing 1% Triton X-100, 50 mM HEPES, 150 mM NaCl, 1 mM MgCl2, 1 mM EGTA, 10% glycerol, and protease inhibitor cocktail (Roche, Indianapolis, Ind.) using a PowerGen 125 homogenizer (Fisher Scientific, Pittsburgh, Pa.). Samples were centrifuged at 14,000 rpm for 10 min at 4° C. The supernatants were collected and total protein concentration was determined using the BCA assay (ThermoScientific, Rockford, Ill.), and a Bio Tek synergy 2 microplate reader (Winooski, Vt.). Samples were normalized and then run onto 10 or 12% SDS-polyacrylamide gels prepared in a Criterion® Cassette system (Bio-Rad, Hercules, Calif.) as previously described. The following antibodies and dilutions were used: LC3B rabbit polyclonal (#2775, 1:1,000), LC3A rabbit monoclonal (#4599 ([…]), 1:1,000), Beclin-1 rabbit polyclonal (#3738, 1:1,000), GABARAPL1 rabbit monoclonal (#13733 (E1J4E), 1:1,000), AMPKα rabbit monoclonal (#2603 (23A3), 1:500), FOXO1 rabbit monoclonal (#2880 (C29H4), 1:1,000), and Pan-Actin rabbit polyclonal (#4968, 1:500) were all obtained from Cell Signaling Technology (Danvers, Mass.). […]

## CCN(CCO)CCCC(C)Nc1ccnc2cc(Cl)ccc12 (stereo not shown) [HCQ, hydroxychloroquine]
LC3B-II [1]
  LC3B-II protein in T-HESC cells: increase
Endometriotic lesions
  effect on endometriotic lesions (FIG. 5): effectiveness
LC3B-II [2]
  LC3B-II expression in heart: showed differences
  LC3B-II expression in lung: showed differences
